From patent publication US20070003626A1, “Sterile in-situ microcarrier forming gelled polymeric dispersions and processes to manufacture the same” (priority 2004, published 2007)

Test: Effect of gamma irradiation on paclitaxel stability in various compositions (paclitaxel assay before and after irradiation)
Type: physicochemical
Source text: Paclitaxel either as a powder or in solution in different solvents such as DMA, PEG 400, DMA:PEG 400 (25:75% w/w) and in a polymer solution in DMA:PEG 400 (25:75% w/w) was subjected to gamma irradiation sterilization at a dose of 25 KGy and analyzed for paclitaxel content before and after irradiation.

CC(=O)O[C@H]1C(=O)[C@@]2(C)[C@H]([C@H](OC(=O)c3ccccc3)[C@]3(O)C[C@H](OC(=O)[C@H](O)[C@@H](NC(=O)c4ccccc4)c4ccccc4)C(C)=C1C3(C)C)[C@]1(OC(C)=O)CO[C@@H]1C[C@@H]2O [Paclitaxel]
Assay WRT initial, % (percentage remaining after treatment) (after gamma irradiation at 25 KGy): 94.74%
Assay, % Post-irradiation (paclitaxel content after gamma irradiation at 25 KGy): 94.74 ± 2.36%
Assay, % Initial (paclitaxel content before gamma irradiation): 100%
